Measurements as given in patent US7902225B2, “Mycobacterial inhibitors” (Janssen Pharmaceutica NV, priority 2005, dated 2011).

Tested on: M. Smegmatis ATCC607
Test: In-vitro anti-bacterial activity against strain M. smegmatis ATCC607 (growth inhibition, Alamar Blue fluorescence)
Format: cell-based
Settings: 48 hours at 37° C.; for IC50: Mycolicibacterium smegmatis, read-out: M. smegmatis (pIC50) (converted)
Experimental: D.2. In-vitro Method for Testing Compounds for Anti-bacterial Activity Against Strain M. Smegmatis ATCC607. Flat-bottom, sterile 96well plastic microtiter plates were filled with 180 μl of sterile deionized water, supplemented with 0.25% BSA. Subsequently, stock solutions (7.8× final test concentration) of compounds were added in 45 μl volumes to a series of duplicate wells in column 2 so as to allow evaluation of their effects on bacterial growth. Serial five-fold dilutions (45 μl in 180 μl) were made directly in the microtiter plates from column 2 to 11 using a customised robot system (Zymark Corp., Hopkinton, Mass.). Pipette tips were changed after every 3 dilutions to minimize pipetting errors with high hydrophobic compounds. Untreated control samples with (column 1) and without (column 12) inoculum were included in each microtiter plate. Approximately 250 CFU per well of bacteria inoculum, in a volume of 100 μl in 2.8× Mueller-Hinton broth medium, was added to the rows […]. The same volume of broth medium without inoculum was added to column 12 in row A to H. The cultures were incubated at 37° C. for 48 hours in a humidified 5% CO2 atmosphere (incubator with open air valve and continuous ventilation). At the end of incubation, two days after inoculation, the bacterial growth was quantitated fluorometrically. Therefore Alamar Blue (10×) was added to all wells in a volume of 20 μl and plates were incubated for another 2 hours at […] The fluorescence was read in a computer-controlled fluorometer (Cytofluor, Biosearch) at an excitation wavelength of 530 nm and an emission wavelength of 590 nm (gain 30). The % growth inhibition achieved by the compounds was calculated according to standard methods. The pIC50 was defined as the 50% inhibitory concentration for bacterial growth.

SMILES | IC50 [µM] | M. smegmatis (pIC50)
COc1nc2cccc(C(O)(CCN(C)C)c3ccco3)c2cc1-c1ccccc1 (stereo not shown) [Compound 21] | 31.6 | –
CN(C)CCC(O)(c1ccccc1)c1cc(Br)cc2cc(Cc3ccccc3)c(NCCCN3CCCC3=O)nc12 (stereo not shown) [Compound 92] | – | 5.2
CC(=O)c1ccc(N2CCN(c3nc4c(C(O)(CCN(C)C)c5ccccc5)cc(Br)cc4cc3Cc3ccccc3)CC2)cc1 (stereo not shown) [Compound 82] | 1.58 | –
CN(C)CCC(O)(c1cccs1)c1cc(Br)cc2cc(Cc3ccccc3)c(-n3ccnc3)nc12 (stereo not shown) [Compound 53] | 1.26 | –
CN(C)CCC(O)(c1ccccc1)c1cc2nc(N3CCN(Cc4ccccc4)CC3)c(Cc3ccccc3)cc2cc1Br (stereo not shown) [Compound 55] | 1.26 | –
COc1cc(-c2ccccc2)c2cc(C(O)(CCN(C)C)c3ccccc3)ccc2n1 (stereo not shown) [Compound 27] | – | 5.2
CN(C)CCC(O)(c1cc(F)cc(F)c1)c1cccc2nc(N3CCN(C)CC3)c(-c3ccccc3)cc12 (stereo not shown) [Compound 32] | 10 | –
COc1nc2c(C(O)(CCN(C)C)c3cc(F)cc(F)c3)cc(Br)cc2cc1-c1ccccc1 (stereo not shown) [Compound 12] | 1.58 | –
CN(C)CCC(O)(c1cccc2ccccc12)c1cc(Br)cc2cc(Cc3ccccc3)c(N3CCN(Cc4ccc5c(c4)OCO5)CC3)nc12 (stereo not shown) [Compound 45] | – | 6.6
COc1nc2cccc(C(O)(CCN(C)C)c3c(F)cccc3F)c2cc1-c1ccccc1 (stereo not shown) [Compound 28] | – | 5.1
CN(C)CCC(O)(c1ccccc1)c1cc(Br)cc2cc(Cc3ccccc3)c(N(C)C)nc12 (stereo not shown) [Compound 78] | 1.58 | –
CN(C)CCC(O)(c1cc(F)cc(F)c1)c1cc(Br)cc2cc(-c3ccccc3)c(-n3ccnc3)nc12 (stereo not shown) [Compound 44] | 1.26 | –
CN(C)CCC(O)(c1ccccc1)c1ccc2nc(-c3cccnc3)cc(-c3ccccc3)c2c1 (stereo not shown) [Compound 71] | 1.58 | –
CN(C)CCC(O)(c1cccc2ccccc12)c1cc(Br)cc2cc(Cc3ccccc3)c(N3CCCC3)nc12 (stereo not shown) [Compound 52] | 1 | –
CN(C)CCC(O)(c1ccco1)c1cc(Br)cc2cc(-c3ccccc3)c(-n3ccnc3)nc12 (stereo not shown) [Compound 63] | 6.31 | –
CN(C)CCC(O)(c1ccccc1)c1cc2nc(N3CCCC3)c(Cc3ccccc3)cc2cc1Br (stereo not shown) [Compound 58] | – | 5.8
CN(C)CCC(O)(c1cccc2ccccc12)c1cc(Br)cc2cc(Cc3ccccc3)c(N3CCOCC3)nc12 (stereo not shown) [Compound 51] | 1 | –
COc1nc2ccc(C(O)(CCN(C)C)c3cc(F)cc(F)c3)cc2cc1Cc1ccc(C)cc1 (stereo not shown) [Compound 2] | 1.26 | –
CN(C)CCC(O)(c1ccccc1)c1cc(Br)cc2cc(-c3ccccc3)c(-n3cncn3)nc12 (stereo not shown) [Compound 66] | 12.6 | –
CN(C)CCC(O)(c1cc(F)cc(F)c1)c1cccc2nc(-n3cncn3)c(-c3ccccc3)cc12 (stereo not shown) [Compound 33] | 31.6 | –
COc1nc2cccc(C(O)(CCN(C)C)c3cc(F)cc(F)c3)c2cc1-c1ccccc1 (stereo not shown) [Compound 1] | 1.26 | –
CN(C)CCC(O)(c1ccccc1)c1cc(Br)cc2cc(Cc3ccccc3)c(N3CC=CCC3)nc12 (stereo not shown) [Compound 81] | 1.26 | –

SMILES | IC50 [µM] | M. smegmatis (pIC50)
CN(C)CCC(O)(c1ccccc1)c1cc(Br)cc2cc(Cc3ccccc3)c(N3CCN(C(=O)c4ccco4)CC3)nc12 (stereo not shown) [Compound 86] | – | 5.7
CN(C)CCC(O)(c1cccc2ccccc12)c1cc(Br)cc2cc(-c3ccccc3)c(-n3cncn3)nc12 (stereo not shown) [Compound 56] | – | 5.8
CN(C)CCC(O)(c1cccc2ccccc12)c1cc(Br)cc2cc(Cc3ccccc3)c(-n3ccnc3)nc12 (stereo not shown) [Compound 46] | – | 6.6
CN(C)CCC(O)(c1ccccc1)c1cc(Br)cc2cc(Cc3ccccc3)c(-n3ccnn3)nc12 (stereo not shown) [Compound 65] | – | 5.2
CC1CCN(c2nc3c(C(O)(CCN(C)C)c4ccccc4)cc(Br)cc3cc2Cc2ccccc2)CC1 (stereo not shown) [Compound 91] | – | 5.3
CN(C)CCC(O)(c1ccccc1)c1cc(Br)cc2cc(Cc3ccccc3)c(NCCC(c3ccccc3)c3ccccc3)nc12 (stereo not shown) [Compound 88] | 2.51 | –
COc1nc2cccc(C(O)(CCN(C)C)c3cccc4ccccc34)c2cc1-c1ccccc1 (stereo not shown) [Compound 18] | 1.58 | –
CN(C)CCC(O)(Cc1c(-c2ccccc2)c(-c2ccco2)nc2ccccc12)c1cc(F)cc(F)c1 (stereo not shown) [Compound 39] | 1.26 | –
CN(C)CCC(O)(c1ccccc1)c1cc(Br)cc2cc(Cc3ccccc3)c(NCCCN3CCOCC3)nc12 (stereo not shown) [Compound 87] | 2.51 | –
CN(C)CCC(O)(c1ccccc1)c1cc2nc(N3CCN(Cc4ccc5c(c4)OCO5)CC3)c(Cc3ccccc3)cc2cc1Br (stereo not shown) [Compound 60] | 2 | –
CN(C)CCC(O)(c1cccc2ccccc12)c1cc(Br)cc2cc(Cc3ccccc3)c(N3CCN(C(c4ccccc4)c4ccccc4)CC3)nc12 (stereo not shown) [Compound 69] | 39.8 | –
COc1nc2c(C(O)(CCN(C)C)c3cccs3)cc(-c3cccnc3)cc2cc1Cc1ccccc1 (stereo not shown) [Compound 77] | 12.6 | –
CN(C)CCC(O)(c1cc(F)cc(F)c1)c1ccc2nc(-c3cccnc3)cc(-c3ccccc3)c2c1 (stereo not shown) [Compound 8] | 1.58 | –
CCCCNc1nc2c(C(O)(CCN(C)C)c3ccccc3)cc(Br)cc2cc1Cc1ccccc1 (stereo not shown) [Compound 93] | – | 5.1
CN(C)CCC(O)(c1ccccc1)c1cc(Br)cc2cc(Cc3ccccc3)c(N3CCN(c4ccccn4)CC3)nc12 (stereo not shown) [Compound 85] | – | 5.7
CN(C)CCC(O)(c1cccs1)c1cc(Br)cc2cc(Cc3ccccc3)c(N3CCN(C)CC3)nc12 (stereo not shown) [Compound 35] | 1.58 | –
CN(C)CCC(O)(c1cccc2ccccc12)c1cc(Br)cc2cc(Cc3ccccc3)c(N3CCN(c4n[nH]c5ccccc45)CC3)nc12 (stereo not shown) [Compound 48] | 0.631 | –
CN(C)CCC(O)(c1cccs1)c1cc(Br)cc2cc(Cc3ccccc3)c(N(C)C)nc12 (stereo not shown) [Compound 73] | 1.58 | –
CN(C)CCC(O)(Cc1c(Cc2ccccc2)c(-c2ccccc2)nc2ccccc12)c1cc(F)cc(F)c1 (stereo not shown) [Compound 42] | 39.8 | –
CN(C)CCC(O)(c1ccccc1)c1cc2nc(N(C)C)c(Cc3ccccc3)cc2cc1Br (stereo not shown) [Compound 67] | 20 | –
COc1nc2c(C(O)(CCN(C)C)c3cccs3)cc(Br)cc2cc1Cc1ccccc1 (stereo not shown) [Compound 15] | 7.94 | –
CN(C)CCC(O)(c1cccc2ccccc12)c1cc(Br)cc2cc(Cc3ccccc3)c(N3CCN(Cc4ccccc4)CC3)nc12 (stereo not shown) [Compound 47] | 0.398 | –

SMILES | IC50 [µM] | M. smegmatis (pIC50)
CN(C)CCC(O)(c1ccccc1)c1cc2nc(N3CCN(C)CC3)c(Cc3ccccc3)cc2cc1Br (stereo not shown) [Compound 61] | – | 5.3
COc1nc2c(C(O)(CCN(C)C)c3cccs3)cc(C)cc2cc1Cc1ccccc1 (stereo not shown) [Compound 16] | 1.58 | –
Cc1cc(-c2ccccc2)c2cc(C(O)(CCN(C)C)c3ccccc3)ccc2n1 (stereo not shown) [Compound 43] | 12.6 | –
CN(C)CCC(O)(c1cccc2ccccc12)c1cccc2nc(N3CCN(C)CC3)c(-c3ccccc3)cc12 (stereo not shown) [Compound 36] | 10 | –
CN(C)CCC(O)(c1ccccc1)c1cc(Br)cc2cc(Cc3ccccc3)c(-n3ccnc3)nc12 (stereo not shown) [Compound 59] | – | 5.8
CN(C)CCC(O)(Cc1c(-c2ccccc2)c(-c2ccccc2)nc2ccccc12)c1cc(F)cc(F)c1 (stereo not shown) [Compound 41] | 31.6 | –
CN(C)CCC(O)(Cc1c(Cc2ccccc2)c(N2CCOCC2)nc2ccccc12)c1cc(F)cc(F)c1 (stereo not shown) [Compound 31] | 1.26 | –
CN(C)CCC(O)(c1cccc2ccccc12)c1cc(Br)cc2cc(Cc3ccccc3)c(N(C)C)nc12 (stereo not shown) [Compound 57] | – | 5.8
CN(C)CCC(O)(c1cccc2ccccc12)c1cc(Br)cc2cc(Cc3ccccc3)c(N3CCN(O)CC3)nc12 (stereo not shown) [Compound 49] | – | 6.1
CN(C)CCC(O)(c1ccc2nc(-c3cccnc3)cc(-c3ccccc3)c2c1)c1ccco1 (stereo not shown) [Compound 72] | 6.31 | –
Cc1cc(-c2ccccc2)c2cc(C(O)(CCN(C)C)c3ccco3)ccc2n1 (stereo not shown) [Compound 6] | 31.6 | –
CN(C)CCC(O)(c1ccccc1)c1cc(Br)cc2cc(Cc3ccccc3)c(N3CCC(C(N)=O)CC3)nc12 (stereo not shown) [Compound 94] | 7.94 | –
COc1cc(-c2ccccc2)c2cc(C(O)(CCN(C)C)c3ccco3)ccc2n1 (stereo not shown) [Compound 29] | 31.6 | –
COc1nc2c(C(O)(CCN(C)C)c3ccco3)cc(Br)cc2cc1-c1ccccc1 (stereo not shown) [Compound 26] | 2 | –
CN(C)CCC(O)(c1cccc2ccccc12)c1cc(Br)cc2cc(Cc3ccccc3)c(N3CCC(Cc4ccccc4)CC3)nc12 (stereo not shown) [Compound 64] | – | 5.2
CN(C)CCC(O)(c1ccccc1)c1cc(Br)cc2cc(Cc3ccccc3)c(N3CCC(Cc4ccccc4)CC3)nc12 (stereo not shown) [Compound 84] | 2 | –
CN(C)CCC(O)(c1ccccc1)c1cc(Br)cc2cc(Cc3ccccc3)c(-n3cncn3)nc12 (stereo not shown) [Compound 62] | – | 5.3
COc1nc2cccc(C(O)(CCN(C)C)c3ccccc3)c2cc1-c1ccccc1 (stereo not shown) [Compound 20] | 31.6 | –
CN(C)CCC(O)(Cc1c(Cc2ccccc2)c(N2CCCC2)nc2ccccc12)c1cc(F)cc(F)c1 (stereo not shown) [Compound 4] | 0.251 | –
CN(C)CCC(O)(c1cccc2ccccc12)c1cc(Br)cc2cc(Cc3ccccc3)c(N3CCc4ccccc4C3)nc12 (stereo not shown) [Compound 50] | 0.794 | –
